Common to all, as to assay type: in vitro ADME
A short description of data set [1]: Hepatocyte Stability Assay, human. The settings on record: cryopreserved hepatocytes, read-out: Human hepatocyte clearance. Here is the method: (§1) Preparation of working solutions: 10 mM stock solutions of test compound and positive control were prepared in DMSO. In separate conical tubes, the 10 mM solution of test compound and the positive control were diluted to 100 μM by combining 198 μL of 50% acetonitrile/50% water and 2 μL of 10 mM stock.
(§2) Preparation of Hepatocytes: Incubation medium (William's E Medium supplemented with GlutaMAX) and hepatocyte thawing medium were placed in a 37° C. water bath and allowed warming for at least 15 minutes prior to use. A vial of cryopreserved hepatocytes was transferred from storage, ensuring that vials remained at cryogenic temperatures until thawing process ensued. Cells were thawed by placing the vial in a 37° C. water bath and gently shaking the vials for 2 minutes. […] Using an AO/PI Staining, cells were counted and the viable cell density was determined. Cells with poor viability (<75% viability) were determined to be not acceptable for use. […]
(§3) Data Analysis: All calculations were carried out using Microsoft Excel. Peak areas were determined from extracted ion chromatograms. In vitro half-life (t1/2) of parent compound was determined by regression analysis of the percent parent disappearance vs. time curve.
(§4) The in vitro half-life (in vitro t1/2) was determined from the slope value: in vitro t1/2=0.693/k […]

A short description of data set [2]: Hepatocyte Stability Assay, rat. Particulars: cryopreserved hepatocytes, read-out: Rat hepatocyte clearance. As for the experimental part:
as §1, §2, §3, §4

Data set [3] in a line: Plasma Protein Binding Determination with Ultracentrifugation Method. The settings on record: human plasma, read-out: Human plasma protein binding (% bound). Here is the method: The frozen plasma (stored at −80° C.) was thawed in a 37° C. water bath, followed by centrifugation at 3,220 g for 10 minutes to remove clots. The supernatant was removed into a new tube as the spun plasma. The spun plasma was pre-warmed in a 37° C. water bath for 10 minutes. The stock solutions of test compounds were diluted to 200 μM in DMSO, and then spiked into the plasma. Duplicate samples were prepared. The final concentration of compound was 1.0 μM. The final concentration of organic solvent was 0.5%. Warfarin was used as positive control in the assay. 1.0 mL of the spiked plasma was transferred to a new balance ultracentrifuge tube. Samples were incubated at 37° C., 5% CO2 for 30 minutes. After incubation, the balance ultracentrifuge tubes were centrifuged at 600,000 g for 5.5 hours at 37° C. […]
Data Analysis: All calculations were carried out using Microsoft Excel. The concentrations of test compound in plasma samples and post-ultracentrifugation plasma was determined from peak areas. The percentages of test compound bound was calculated as follows: […]

With `Cn1nccc1C(=O)Nc1ccc2nc(-c3ccccc3C(F)(F)F)[nH]c2c1` [A, 1-methyl-N-(2-(2-(trifluoromethyl)phenyl)-1H-benzo[d]imidazol-6-yl)-1H-pyrazole-5-carboxamide], the CLint scaled at 1 μM in data set [1] was under 20 mL/min/kg.

Regarding `Cn1ncnc1C(=O)Nc1ccc2nc(-c3ccccc3C(F)(F)F)[nH]c2c1` [Compound H, 1-methyl-N-(2-(2-(trifluoromethyl)phenyl)-1H-benzo[d]imidazol-6-yl)-1H-1,2,4-triazole-5-carboxamide], the CLint scaled at 1 μM in data set [2] and in data set [1] was under 20 mL/min/kg in each case. Further, the fraction unbound at 30 min, 1 μM in data set [3] is under 0.25.

Values taken from patent US12570638B2, “Fused imidazole derivatives as AHR antagonists” (Sail Biomedicines, Inc., priority 2020, dated 2026).
